In patent US20170281587A1, “ERYTHROCYTE FUNCTION IMPROVING AGENT” (Glico Nutrition Co., Ltd., priority 2014, published 2017):
“And” between values parts separate entries of the source, which are not always exact repeats. Equal entries are not always repeated.

Legend:
[1] = test system: red blood cells; conditions: cited from earlier work
[2] = test system: red blood cells; conditions: in vivo, po
Description: In this test, paprika carotenoids rich in carotenoids having 3,6-epoxy end groups or 5-membered ring end groups were orally administered to an adult, and cucurbitaxanthin A, capsanthin, capsorubin, and capsanthin 3,6-epoxide were evaluated for their ability to migrate into red blood cells. A specific testing method was as described below.
Initially, 15 g of a paprika pigment emulsified preparation (PapriX; total amount of carotenoids: 10 mg/g) from Glico Nutrition Co., Ltd., 30 g of dextrin, 70 g of sugar, and 3 g of citric acid were dissolved in 1 L of water to prepare a test beverage containing the paprika carotenoids. The paprika pigment emulsified preparation contained 0.053 mass % of cucurbitaxanthin A, 0.40 mass % of capsanthin, 0.021 mass % of capsorubin, and 0.034 mass % of capsanthin 3,6-epoxide, and the test beverage contained 0.00079 mass % of cucurbitaxanthin A, 0.0060 mass % of capsanthin, 0.00031 mass % of capsorubin, and 0.00051 mass % of capsanthin 3,6-epoxide.
Before the beginning of the ingestion and after 4 weeks from the ingestion, blood was collected to obtain blood samples. Red blood cells were separated from the obtained blood samples, and the carotenoids (capsanthin 3,6-epoxide, cucurbitaxanthin A, capsanthin, and capsorubin) present in red blood cells were quantified by HPLC.

[3] = 30 healthy males and females, oral administration for 12 weeks

Structure (SMILES)	astaxanthin in the red blood cells [1, 3]	lipid peroxides in the red blood cells [1, 3]	migration ratio into red blood cells ([1]; day 84 after the ingestion, calculated from literature disclosure)	ability to migrate into red blood cells (migration ratio into red blood cells) [2]
CC1=C(/C=C/C(C)=C/C=C/C(C)=C/C=C/C=C(C)/C=C/C=C(C)/C=C/C2=C(C)C(=O)[C@@H](O)CC2(C)C)C(C)(C)C[C@H](O)C1=O [astaxanthin]	an increase in astaxanthin	a decrease in lipid peroxides	0.0089% and 0.0057%	–
CC(/C=C/C=C(C)/C=C/C(=O)[C@]1(C)C[C@@H](O)CC1(C)C)=C\C=C\C=C(C)\C=C\C=C(C)\C=C\[C@@]12O[C@@H](CC1(C)C)C[C@@]2(C)O [capsanthin 3,6-epoxide]	–	–	–	little migration into red blood cells
CC1=C(/C=C/C(C)=C/C=C/C(C)=C/C=C/C=C(C)/C=C/C=C(C)/C=C/C(=O)[C@]2(C)C[C@@H](O)CC2(C)C)C(C)(C)C[C@H](O)C1 [capsanthin]	–	–	–	little migration into red blood cells
CC(/C=C/C=C(C)/C=C/C(=O)[C@]1(C)C[C@@H](O)CC1(C)C)=C\C=C\C=C(C)\C=C\C=C(C)\C=C\C(=O)[C@]1(C)C[C@@H](O)CC1(C)C [capsorubin]	–	–	–	little migration into red blood cells
CC1=C(/C=C/C(C)=C/C=C/C(C)=C/C=C/C=C(C)/C=C/C=C(C)/C=C/[C@@]23O[C@@H](CC2(C)C)C[C@@]3(C)O)C(C)(C)C[C@H](O)C1 [cucurbitaxanthin A, (3S,3′R,5R,6R)-3,6-epoxy-5,6-dihydro-β,β-carotene-3′,5-diol]	–	–	–	markedly high ability to migrate into red blood cells
